# Test results reported in the SangsterLogP compilation.
# Assay: method code SF-AS, from DOI: 10.1002/qsar.19890080102
logD (pH 1.5),logD (pH 5.5),Compound
2.06,,CCCCOc1cccc(S(N)(=O)=O)c1
1.34,,NS(=O)(=O)c1ccc(Br)cc1
2.05,,CCCCOc1ccc(S(N)(=O)=O)cc1
1.55,,NS(=O)(=O)c1ccc(I)cc1
1.16,,NS(=O)(=O)c1cccc(Cl)c1
1.58,,NS(=O)(=O)c1cccc(I)c1
-0.4,,CS(=O)(=O)Nc1ccc(S(N)(=O)=O)cc1
,-0.32,Nc1cccc(S(N)(=O)=O)c1
1.71,,CC(C)c1ccc(S(N)(=O)=O)cc1
1.35,,NS(=O)(=O)c1cccc(Br)c1
2.24,,NS(=O)(=O)c1ccc(-c2ccccc2)cc1
-0.5,,NS(=O)(=O)c1cccc(S(N)(=O)=O)c1
1.66,,CC(C)c1cccc(S(N)(=O)=O)c1
